# Values of other authors as cited in publication PMC5260004, “Permeability across a novel microfluidic blood-tumor barrier model” (Fluids and Barriers of the CNS, 2017).
# System: P-gp
# Set-up: method as in PMID 23916719
# Settings: in vivo, rhodamine 123 and an inhibitor of P-gp administered concurrently
structure (smiles),measurement,value
"COC(=O)c1ccccc1-c1c2ccc(=N)cc-2oc2cc(N)ccc12 [Rho123, Rhodamine 123]",fold higher dye accumulation in brain with P-gp inhibitor than in the absence of efflux inhibition,10- to 12 fold
